PMC5218480 (PLoS ONE, 2017)

Tested on: MV-4-11 cells
Test: Gene expression microarray analysis (Affymetrix PrimeView) and GSEA
Type: cell-based, human
Parameters: RFU PODN (11730768_x_at) / Fold change /veh PODN (11730768_x_at) / RFU LINC00158 (11744669_a_at) / Fold change /veh LINC00158 (11744669_a_at) / RFU DUSP10 (11751237_a_at) / Fold change /veh DUSP10 (11751237_a_at) / RFU ID3 (11757404_x_at) / Fold change /veh ID3 (11757404_x_at) / RFU PLEKHG5 (11737974_s_at) / Fold change /veh PLEKHG5 (11737974_s_at) / RFU LRRC4B (11730491_at) / Fold change /veh LRRC4B (11730491_at) / RFU GIMAP4 (11747438_a_at) / Fold change /veh GIMAP4 (11747438_a_at) / RFU KRT8 (11758183_x_at) / Fold change /veh KRT8 (11758183_x_at) / RFU CNN1 (11734310_a_at) / Fold change /veh CNN1 (11734310_a_at) / RFU VPS37D (11726825_at) / Fold change /veh VPS37D (11726825_at) / RFU C10orf10 (11716522_x_at) / Fold change /veh C10orf10 (11716522_x_at) / RFU KIR2DL2 /// KIR2DL4 /// KIR2DL5A /// KIR2DL5B /// KIR2DS1 /// KIR2DS2 /// KIR2DS3 /// KIR2DS4 /// KIR3DL3 /// KIR3DL3 /// KIR3DS1 (11738374_at) / Fold change /veh KIR2DL2 /// KIR2DL4 /// KIR2DL5A /// KIR2DL5B /// KIR2DS1 /// KIR2DS2 /// KIR2DS3 /// KIR2DS4 /// KIR3DL3 /// KIR3DL3 /// KIR3DS1 (11738374_at) / RFU C1QL1 (11718748_at) / Fold change /veh C1QL1 (11718748_at) / RFU TMPRSS4 (11747572_a_at) / Fold change /veh TMPRSS4 (11747572_a_at) / RFU HAMP (11756126_x_at) / Fold change /veh HAMP (11756126_x_at) / RFU RNFT2 (11725882_a_at) / Fold change /veh RNFT2 (11725882_a_at) / RFU NR4A2 (11747474_a_at) / Fold change /veh NR4A2 (11747474_a_at) / RFU ABCC12 (11746883_a_at) / Fold change /veh ABCC12 (11746883_a_at) / RFU TMEM136 (11760407_x_at) / Fold change /veh TMEM136 (11760407_x_at) / RFU CLDN22 /// WWC2 (11732394_at) / Fold change /veh CLDN22 /// WWC2 (11732394_at) / RFU HLA-DPB1 (11760878_x_at) / Fold change /veh HLA-DPB1 (11760878_x_at) / RFU SPINT1 (11716480_a_at) / Fold change /veh SPINT1 (11716480_a_at) / RFU GAP43 (11754022_s_at) / Fold change /veh GAP43 (11754022_s_at) / RFU A4GNT (11735810_at) / Fold change /veh A4GNT (11735810_at) / RFU PRB3 (11715151_x_at) / Fold change /veh PRB3 (11715151_x_at) / RFU TUBB4B (11761932_at) / Fold change /veh TUBB4B (11761932_at) / RFU CAPN14 (11732068_a_at) / Fold change /veh CAPN14 (11732068_a_at) / RFU TMCC2 (11721928_a_at) / Fold change /veh TMCC2 (11721928_a_at) / RFU IRGQ (11745062_a_at) / Fold change /veh IRGQ (11745062_a_at) / RFU FAM174B (11720279_a_at) / Fold change /veh FAM174B (11720279_a_at) / RFU TMPRSS4 (11748680_a_at) / Fold change /veh TMPRSS4 (11748680_a_at) / RFU FAM212B (11763350_a_at) / Fold change /veh FAM212B (11763350_a_at) / RFU PLEKHG5 (11743358_a_at) / Fold change /veh PLEKHG5 (11743358_a_at) / RFU ZSCAN30 (11745921_a_at) / Fold change /veh ZSCAN30 (11745921_a_at) / RFU CMKLR1 (11741424_a_at) / Fold change /veh CMKLR1 (11741424_a_at) / RFU LOC101060620 /// MAPK8IP1 (11723275_at) / Fold change /veh LOC101060620 /// MAPK8IP1 (11723275_at) / RFU SPTSSB (11747773_x_at) / Fold change /veh SPTSSB (11747773_x_at) / RFU PRSS12 (11739890_at) / Fold change /veh PRSS12 (11739890_at) / RFU BIN1 (11741810_x_at) / Fold change /veh BIN1 (11741810_x_at) / RFU WNT11 (11732464_a_at) / Fold change /veh WNT11 (11732464_a_at) / RFU C10orf10 (11716521_a_at) / Fold change /veh C10orf10 (11716521_a_at) / RFU C5orf56 (11738089_at) / Fold change /veh C5orf56 (11738089_at) / RFU CYB561 (11721691_x_at) / Fold change /veh CYB561 (11721691_x_at) / RFU ANKRD19P (11752326_a_at) / Fold change /veh ANKRD19P (11752326_a_at) / RFU OR2T12 /// OR2T33 /// OR2T8 (11738714_s_at) / Fold change /veh OR2T12 /// OR2T33 /// OR2T8 (11738714_s_at) / RFU VCAN (11748164_a_at) / Fold change /veh VCAN (11748164_a_at) / RFU JSRP1 (11732532_at) / Fold change /veh JSRP1 (11732532_at) / RFU KRTAP10-11 (11738290_x_at) / Fold change /veh KRTAP10-11 (11738290_x_at) / RFU MYO3A (11730013_a_at) / Fold change /veh MYO3A (11730013_a_at) / RFU EBF3 (11725865_a_at) / Fold change /veh EBF3 (11725865_a_at) / RFU CAMK2N1 (11719241_x_at) / Fold change /veh CAMK2N1 (11719241_x_at) / RFU C5orf56 (11738088_a_at) / Fold change /veh C5orf56 (11738088_a_at) / RFU OLFML3 (11715873_a_at) / Fold change /veh OLFML3 (11715873_a_at) / RFU LOC100653217 /// NTM (11731650_a_at) / Fold change /veh LOC100653217 /// NTM (11731650_a_at) / RFU MAPK11 (11762145_a_at) / Fold change /veh MAPK11 (11762145_a_at) / RFU FIZ1 (11724087_x_at) / Fold change /veh FIZ1 (11724087_x_at) / RFU OASL (11726364_x_at) / Fold change /veh OASL (11726364_x_at) / RFU SOX15 (11748057_x_at) / Fold change /veh SOX15 (11748057_x_at) / RFU CD79A (11719716_a_at) / Fold change /veh CD79A (11719716_a_at) / RFU HIST1H1D (11736915_at) / Fold change /veh HIST1H1D (11736915_at) / RFU CASKIN2 (11723855_a_at) / Fold change /veh CASKIN2 (11723855_a_at) / RFU LOC730098 (11760151_x_at) / Fold change /veh LOC730098 (11760151_x_at) / RFU OR4N2 (11742367_at) / Fold change /veh OR4N2 (11742367_at) / RFU PRRT2 (11749266_a_at) / Fold change /veh PRRT2 (11749266_a_at) / RFU SNX32 (11753110_a_at) / Fold change /veh SNX32 (11753110_a_at) / RFU CDHR5 (11726645_a_at) / Fold change /veh CDHR5 (11726645_a_at) / RFU RCAN1 (11760418_a_at) / Fold change /veh RCAN1 (11760418_a_at) / RFU FAM167A (11723789_a_at) / Fold change /veh FAM167A (11723789_a_at) / RFU FAM26E (11764081_at) / Fold change /veh FAM26E (11764081_at) / RFU ISYNA1 (11749810_s_at) / Fold change /veh ISYNA1 (11749810_s_at) / RFU ACY1 (11761880_at) / Fold change /veh ACY1 (11761880_at) / RFU 11764098_at / Fold change /veh 11764098_at / RFU SAMD14 (11745864_x_at) / Fold change /veh SAMD14 (11745864_x_at) / RFU NPB (11741838_a_at) / Fold change /veh NPB (11741838_a_at) / RFU TMPRSS6 (11731388_a_at) / Fold change /veh TMPRSS6 (11731388_a_at) / RFU KRTAP10-2 (11738614_at) / Fold change /veh KRTAP10-2 (11738614_at) / RFU ARHGAP8 /// PRR5-ARHGAP8 (11727945_x_at) / Fold change /veh ARHGAP8 /// PRR5-ARHGAP8 (11727945_x_at) / RFU KRTAP5-7 /// NADSYN1 (11734609_at) / Fold change /veh KRTAP5-7 /// NADSYN1 (11734609_at) / RFU RASL12 (11751679_a_at) / Fold change /veh RASL12 (11751679_a_at) / RFU CDKN2B (11736163_a_at) / Fold change /veh CDKN2B (11736163_a_at) / RFU PRF1 (11729649_at) / Fold change /veh PRF1 (11729649_at) / RFU, ZNF638 /// ZNF638-IT1 / Fold change vs veh, ZNF638 /// ZNF638-IT1 / RFU, PANK3 / Fold change vs veh, PANK3 / RFU, SH3YL1 / Fold change vs veh, SH3YL1 / RFU, ZEB2 / Fold change vs veh, ZEB2 / RFU, NRIP1 / Fold change vs veh, NRIP1 / RFU, PTTG1IP / Fold change vs veh, PTTG1IP / RFU, CAPN2 / Fold change vs veh, CAPN2 / RFU, MED14 / Fold change vs veh, MED14 / RFU, SNORA58 / Fold change vs veh, SNORA58 / RFU, C1orf63 / Fold change vs veh, C1orf63 / RFU, LRRFIP1 / Fold change vs veh, LRRFIP1 / RFU, NDUFAF7 / Fold change vs veh, NDUFAF7 / RFU, SLC12A2 / Fold change vs veh, SLC12A2 / RFU, IBTK / Fold change vs veh, IBTK / RFU, ESF1 / Fold change vs veh, ESF1 / Fold change vs veh, TMEM50B / RFU, TAOK1 / Fold change vs veh, TAOK1 / RFU, ACBD3 / Fold change vs veh, ACBD3 / RFU, TMA16 / Fold change vs veh, TMA16 / RFU, RWDD3 / Fold change vs veh, RWDD3 / RFU, BCAT1 / Fold change vs veh, BCAT1 / RFU, EDEM3 / Fold change vs veh, EDEM3 / RFU, TMEM33 / Fold change vs veh, TMEM33 / RFU, WDR75 / Fold change vs veh, WDR75 / RFU, AHCTF1 / Fold change vs veh, AHCTF1 / RFU, TFRC / Fold change vs veh, TFRC / RFU, ZDHHC17 / Fold change vs veh, ZDHHC17 / RFU, NOM1 / Fold change vs veh, NOM1 / RFU, ARL8B / Fold change vs veh, ARL8B / RFU, ZBTB11 / Fold change vs veh, ZBTB11 / RFU, TAMM41 / Fold change vs veh, TAMM41 / RFU, KIAA1704 /// LOC100996395 / Fold change vs veh, KIAA1704 /// LOC100996395 / RFU, ING1 / Fold change vs veh, ING1 / RFU, TRMT61B / Fold change vs veh, TRMT61B / RFU, FUBP3 / Fold change vs veh, FUBP3 / RFU, TP53 / Fold change vs veh, TP53 / RFU, TNKS2 / Fold change vs veh, TNKS2 / RFU, ZFP14 / Fold change vs veh, ZFP14 / RFU, ACTR2 / Fold change vs veh, ACTR2 / RFU, PPP3R1 / Fold change vs veh, PPP3R1 / RFU, PIK3R1 / Fold change vs veh, PIK3R1 / RFU, HNRNPA1 / Fold change vs veh, HNRNPA1 / RFU, RNF170 / Fold change vs veh, RNF170 / RFU, ZNF28 / Fold change vs veh, ZNF28 / RFU, RNGTT / Fold change vs veh, RNGTT / RFU, OGT / Fold change vs veh, OGT / RFU, BRD1 / Fold change vs veh, BRD1 / RFU, MARS / Fold change vs veh, MARS / RFU, ZNF655 / Fold change vs veh, ZNF655 / RFU, FAHD1 / Fold change vs veh, FAHD1 / RFU, BDP1 / Fold change vs veh, BDP1 / RFU, LRRCC1 / Fold change vs veh, LRRCC1 / RFU, ARID1A / Fold change vs veh, ARID1A / RFU, ZNF146 / Fold change vs veh, ZNF146 / RFU, ZNF330 / Fold change vs veh, ZNF330 / RFU, GPN3 / Fold change vs veh, GPN3 / RFU, C9orf123 / Fold change vs veh, C9orf123 / RFU, N4BP2L2 / Fold change vs veh, N4BP2L2 / RFU, ARFIP1 / Fold change vs veh, ARFIP1 / RFU, FAM179B / Fold change vs veh, FAM179B / RFU, BCL10 / Fold change vs veh, BCL10 / RFU, UHRF1BP1L / Fold change vs veh, UHRF1BP1L / RFU, BET1 / Fold change vs veh, BET1 / RFU, CNOT2 / Fold change vs veh, CNOT2 / RFU, ZNF268 / Fold change vs veh, ZNF268 / Fold change vs veh, ZNF507 / RFU, DGCR2 / Fold change vs veh, DGCR2 / RFU, WDSUB1 / Fold change vs veh, WDSUB1 / Fold change vs veh, HSP90B1 /// MIR3652 / RFU, ADSS / Fold change vs veh, ADSS / RFU, GK / Fold change vs veh, GK / RFU, ZNF148 / Fold change vs veh, ZNF148 / RFU, TAF9 / Fold change vs veh, TAF9 / RFU, SLC1A5 / Fold change vs veh, SLC1A5 / RFU, SLMO2 / Fold change vs veh, SLMO2 / RFU, ABCC4 / Fold change vs veh, ABCC4 / RFU, LOC101060439 /// RAP1B / Fold change vs veh, LOC101060439 /// RAP1B / RFU, RFX7 / Fold change vs veh, RFX7 / RFU, GTPBP10 / Fold change vs veh, GTPBP10 / RFU, CNEP1R1 / Fold change vs veh, CNEP1R1 / RFU, BIVM-ERCC5 /// ERCC5 / Fold change vs veh, BIVM-ERCC5 /// ERCC5 / RFU, ILF3 / Fold change vs veh, ILF3 / RFU 11762660_at / Fold change /veh 11762660_at / RFU VCAN (11757783_s_at) / Fold change /veh VCAN (11757783_s_at) / RFU DDX43 (11728927_at) / Fold change /veh DDX43 (11728927_at) / RFU KRT8 (11758188_x_at) / Fold change /veh KRT8 (11758188_x_at) / RFU NKD1 (11759106_at) / Fold change /veh NKD1 (11759106_at) / RFU SRD5A1 (11742802_a_at) / Fold change /veh SRD5A1 (11742802_a_at) / RFU TPSAB1 /// TPSB2 (11721975_s_at) / Fold change /veh TPSAB1 /// TPSB2 (11721975_s_at) / RFU GSTM3 (11746129_a_at) / Fold change /veh GSTM3 (11746129_a_at) / RFU IL23R (11737362_x_at) / Fold change /veh IL23R (11737362_x_at) / RFU TMEM51 (11727254_a_at) / Fold change /veh TMEM51 (11727254_a_at) / RFU PIWIL2 (11732686_x_at) / Fold change /veh PIWIL2 (11732686_x_at) / RFU ORM1 (11744905_x_at) / Fold change /veh ORM1 (11744905_x_at) / RFU CCDC152 (11743942_at) / Fold change /veh CCDC152 (11743942_at) / RFU ECM1 (11717891_a_at) / Fold change /veh ECM1 (11717891_a_at) / RFU IL23R (11748794_a_at) / Fold change /veh IL23R (11748794_a_at) / RFU TNFAIP8L3 (11732012_x_at) / Fold change /veh TNFAIP8L3 (11732012_x_at) / RFU MBOAT4 (11741988_at) / Fold change /veh MBOAT4 (11741988_at) / RFU 11764193_at / Fold change /veh 11764193_at / RFU TMEM53 (11763286_at) / Fold change /veh TMEM53 (11763286_at) / RFU MAGEB2 (11727129_at) / Fold change /veh MAGEB2 (11727129_at) / RFU TMEM200A (11744735_a_at) / Fold change /veh TMEM200A (11744735_a_at) / RFU CCDC152 (11751479_a_at) / Fold change /veh CCDC152 (11751479_a_at) / RFU FAM211A (11726209_a_at) / Fold change /veh FAM211A (11726209_a_at) / RFU RGS16 (11746705_a_at) / Fold change /veh RGS16 (11746705_a_at) / RFU VCAN (11755009_s_at) / Fold change /veh VCAN (11755009_s_at) / RFU RHOB (11743442_s_at) / Fold change /veh RHOB (11743442_s_at) / RFU RGS16 (11720943_a_at) / Fold change /veh RGS16 (11720943_a_at) / RFU RGS16 (11720944_at) / Fold change /veh RGS16 (11720944_at) / RFU, VPS4B / Fold change vs veh, VPS4B / RFU, CREB1 / Fold change vs veh, CREB1 / RFU, DNAJC13 / Fold change vs veh, DNAJC13 / RFU, GNAQ / Fold change vs veh, GNAQ / RFU, CDK5R1 / Fold change vs veh, CDK5R1 / RFU, ZRANB3 / Fold change vs veh, ZRANB3 / RFU, CUL4A / Fold change vs veh, CUL4A / RFU, CCNY / Fold change vs veh, CCNY / RFU, UFL1 / Fold change vs veh, UFL1 / RFU, COG3 / Fold change vs veh, COG3 / RFU, DIAPH2 / Fold change vs veh, DIAPH2 / RFU, SKA2 / Fold change vs veh, SKA2 / RFU, AFF3 / Fold change vs veh, AFF3 / RFU, LMF1 / Fold change vs veh, LMF1 / RFU, IPO11 / Fold change vs veh, IPO11 / RFU, DFFB / Fold change vs veh, DFFB / RFU, FOXP1 / Fold change vs veh, FOXP1 / RFU, CARD8 / Fold change vs veh, CARD8 / RFU, STRN3 / Fold change vs veh, STRN3 / RFU, ADK / Fold change vs veh, ADK / RFU, RASSF2 / Fold change vs veh, RASSF2 / RFU, WIPF1 / Fold change vs veh, WIPF1 / RFU, LARP1B / Fold change vs veh, LARP1B / RFU, RASA1 / Fold change vs veh, RASA1 / RFU, RB1 / Fold change vs veh, RB1 / RFU, PPFIA1 / Fold change vs veh, PPFIA1 / RFU, MAT2A / Fold change vs veh, MAT2A / RFU, CCT5 / Fold change vs veh, CCT5 / RFU, WDR92 / Fold change vs veh, WDR92 / RFU, CUX1 / Fold change vs veh, CUX1 / RFU, TTC7A / Fold change vs veh, TTC7A / RFU, TMEM135 / Fold change vs veh, TMEM135 / RFU, DEPTOR / Fold change vs veh, DEPTOR / RFU, CPM / Fold change vs veh, CPM / RFU, DNAJB6 / Fold change vs veh, DNAJB6 / RFU, CACNA2D3 / Fold change vs veh, CACNA2D3 / RFU, DTX4 / Fold change vs veh, DTX4 / RFU, TFCP2 / Fold change vs veh, TFCP2 / RFU, GMCL1 /// GMCL1P1 / Fold change vs veh, GMCL1 /// GMCL1P1 / RFU, AEBP2 / Fold change vs veh, AEBP2 / RFU, SNHG1 /// SNORD22 /// SNORD25 /// SNORD26 /// SNORD27 /// SNORD28 /// SNORD29 /// SNORD31 / Fold change vs veh, SNHG1 /// SNORD22 /// SNORD25 /// SNORD26 /// SNORD27 /// SNORD28 /// SNORD29 /// SNORD31 / Fold change (Aza/veh), C12orf56 (ProbeSet 11735607_a_at) / Fold change (ACY-1035/veh), C12orf56 (ProbeSet 11735607_a_at) / Fold change (Aza/veh), FGFR1OP (ProbeSet 11751329_s_at) / Fold change (ACY-1035/veh), FGFR1OP (ProbeSet 11751329_s_at) / Fold change (Aza/veh), VPS36 (ProbeSet 11739960_a_at) / Fold change (ACY-1035/veh), VPS36 (ProbeSet 11739960_a_at) / RFU SYPL1 (11715823_x_at) / Fold change /veh SYPL1 (11715823_x_at) / RFU IGFBP7 (11715501_s_at) / Fold change /veh IGFBP7 (11715501_s_at) / RFU REEP3 (11722064_at) / Fold change /veh REEP3 (11722064_at) / RFU IGLL1 (11728026_x_at) / Fold change /veh IGLL1 (11728026_x_at): dose or concentration left out as unconfirmed
Details: MV-4-11 cells, 48 hours

Nc1ccc(-c2cccs2)cc1NC(=O)c1ccc2c(c1)cc(C1CC1)n2CCN1CCOCC1 [ACY-1035]
Fold change /veh TMPRSS4 (11747572_a_at): 1.09
